Data as given in article PMC5862616 (Oncotarget, 2018).
Values joined by “and” are separate entries in the source; they are usually repeats but may differ in a detail not shown here. Identical values can stand only once. Like-named read-outs stand apart in the source and are kept apart here.

How the values were obtained:
KM-12 cells [1] = experiment: KM-12 anchorage independent growth in alginate; assay type: cell-based; details: Homo sapiens, KM12, 72 h, read-out: IC50 KM-12 anchorage independent growth
MO-91 cells (ETV6-NTRK3) = details: read-out: IC50 proliferation of MO-91 cells; in vitro; cited from earlier work
[2] = tested on: EL1989 PDX tumors (TPM3-NTRK1); experiment: Colorectal carcinoma PDX model EL1989; details: mouse, in vivo
MO-91 xenograft tumors = tested on: MO-91 xenograft tumors; design: method as in PMID 23811600; details: 50 mg/kg once daily; cited from earlier work
KM-12 cells [3] = experiment: KM-12 anchorage dependent cell proliferation (CellTiter-Glo); assay type: cell-based; details: Homo sapiens, KM12, 72 h, read-out: IC50 KM-12 cell proliferation (anchorage dependent)
[4] = molecular target: T1, mutant G595R TPM3-NTRK1 in NIH-3T3 cells (Homo sapiens, UniProt P04629+P06753, G595R); experiment: Immunoblot of p-NTRK1 in NIH-3T3 cells, G595R TPM3-NTRK1; assay type: cell-based; details: 0.2 μM and 0.5 μM, 4 hours
T1 construct: expressed in transfected cells

[5] = tested on: KM-12 xenograft tumors (TPM3-NTRK1); experiment: KM-12 xenograft tumor model; assay type: in vivo, athymic nude mice
[6] = molecular target: T2, wild-type TPM3-NTRK1 in NIH-3T3 cells (Homo sapiens, UniProt P04629+P06753); experiment: Immunoblot of p-NTRK1 in NIH-3T3 cells, wild-type TPM3-NTRK1; assay type: cell-based; details: 0.2 μM and 0.5 μM, 4 hours
T2 construct: expressed in transfected cells

[7] = tested on: p-ERK (MAPK 42/44) in KM-12 cells; experiment: Western blot of phosphorylated MAPK 42/44 (ERK) in KM-12 cells; assay type: cell-based
Protocol: (§1) 20 μg NTRK1 fusion confirmation
(§2) T20 (ThermoScientific, Rockford, IL) for 30 minutes. MiniPrep cat# R2051 following manufacturer ’s protocol. […]
(§3) (1:2000) (Sigma-Aldrich), HRP-conjugated mouse or primers. The primer sequences are TPM3_Ex3B_F5:
(§4) Chalfont, UK). All western blots were developed using Ex12_R5: […]. PCR was […]

[8] = tested on: MKNK1/2 (p-eIF4E S209) in KM-12 cells; experiment: Western blot of p-eIF4E S209 in KM-12 cells; assay type: cell-based
Protocol: as §1, §2, §3, §4

[9] = tested on: p-eIF4E in NIH-3T3 cells expressing TPM3-NTRK1; experiment: Immunoblot of p-eIF4E in NIH-3T3 TPM3-NTRK1 cells; assay type: cell-based
Protocol: 350 μg/ml hygromycin selection for 14 days. Each stable CO). Percent Ki67+ area was calculated as the percentage
wild-type or mutated NTRK1. Control vector containing positive. […]
as §1
T20 (ThermoScientific, Rockford, IL) for 30 minutes. MiniPrep cat# R2051 following manufacturer ’s protocol.
A forward primer upstream of the
as §3, §4

T2 sequence (P06753+P04629 fused): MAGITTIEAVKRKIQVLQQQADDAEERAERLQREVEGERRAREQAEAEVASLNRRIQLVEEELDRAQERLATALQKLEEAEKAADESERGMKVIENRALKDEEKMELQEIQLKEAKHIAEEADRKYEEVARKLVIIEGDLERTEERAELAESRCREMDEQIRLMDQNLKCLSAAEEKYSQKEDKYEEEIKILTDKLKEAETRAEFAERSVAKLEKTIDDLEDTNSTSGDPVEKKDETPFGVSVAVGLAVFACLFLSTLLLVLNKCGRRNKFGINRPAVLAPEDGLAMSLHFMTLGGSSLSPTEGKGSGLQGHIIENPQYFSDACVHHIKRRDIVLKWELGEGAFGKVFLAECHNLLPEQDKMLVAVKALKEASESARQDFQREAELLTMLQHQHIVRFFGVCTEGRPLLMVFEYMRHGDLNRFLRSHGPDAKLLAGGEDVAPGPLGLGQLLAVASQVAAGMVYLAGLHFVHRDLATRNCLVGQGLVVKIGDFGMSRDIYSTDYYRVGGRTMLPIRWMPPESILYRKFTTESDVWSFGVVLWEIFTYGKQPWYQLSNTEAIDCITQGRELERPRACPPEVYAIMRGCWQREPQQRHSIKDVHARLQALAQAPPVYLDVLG
T1 sequence (P04629 510-796 G595R limits assumed, one chain of several): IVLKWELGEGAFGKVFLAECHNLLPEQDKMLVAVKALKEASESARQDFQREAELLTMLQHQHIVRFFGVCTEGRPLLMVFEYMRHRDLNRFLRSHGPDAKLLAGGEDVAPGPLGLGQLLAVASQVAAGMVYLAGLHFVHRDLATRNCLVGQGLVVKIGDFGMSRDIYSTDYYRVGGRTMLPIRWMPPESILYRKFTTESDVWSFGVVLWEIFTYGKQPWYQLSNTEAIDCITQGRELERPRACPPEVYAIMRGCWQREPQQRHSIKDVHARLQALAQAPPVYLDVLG

Structure (SMILES)	IC50 (KM-12 cells [1]) [nM]	IC50 (MO-91 cells (ETV6-NTRK3)) [nM]	% Necrosis/Mucin, individual animal [2]	% Necrosis/Mucin, mean per group [2] [%]	T/C, EL1989 PDX [2] [%]	Effect on MO-91 xenograft tumors (MO-91 xenograft tumors)	IC50 (KM-12 cells [3]) [nM]	p-NTRK1, mutant G595R TPM3-NTRK1, in words [4]	Animal weights, KM-12 xenograft study ([5]; merestinib 24 mg/kg once daily, crizotinib 25 mg/kg twice daily, measured twice weekly, relative to vehicle)	T/C, KM-12 xenograft ([5]; mouse, in vivo) [%]	p-NTRK1 (Y490) signaling, wild-type TPM3-NTRK1, in words [6]	p-ERK inhibition (in words) [7]	p-eIF4E reduction (MKNK1/2 inhibition, in words) [8]	p-eIF4E reduction, in words [9]	Concentration giving total inhibition of phosphorylation of MAPK 42/44 (ERK) ([7]; KM-12 cells, 2 hours, 3.9-1000 nM, western blot) [nM]	p-eIF4E reduction (MKNK1/2 inhibition, in words) ([8]; KM-12 cells, 2 hours, western blot, b12: 100, 500, 1000 nM)
C[C@@H](Oc1cc(-c2cnn(C3CCNCC3)c2)cnc1N)c1c(Cl)ccc(F)c1Cl [Crizotinib, reference compound]	276	10	80% (2×) and 20% and 95% and 30% and 10%	50	13.5	induced tumor regression	92	little effect	no significant weight alteration	39.5	reduced	dose dependent inhibition	small reduction of p-eIF4E	did not show reduction in p-eIF4E		
CN1CCN(c2ccc(C(=O)Nc3n[nH]c4ccc(Cc5cc(F)cc(F)c5)cc34)c(NC3CCOCC3)c2)CC1 [Entrectinib, reference compound]													small reduction of p-eIF4E			
O=C(Nc1cnn2ccc(N3CCC[C@@H]3c3cc(F)ccc3F)nc12)N1CC[C@H](O)C1 [Larotrectinib, reference compound]								partial p-NTRK1 inhibition			reduced				15.6	small reduction of p-eIF4E
